Columns and labels:
[1] = PK profiling in H1299-GFP-2xFYVE tumor-bearing mice (plasma and tumor); type: in vivo, mouse
Method: The study was performed by Truly Translational AB (Lund, Sweden) following Swedish legislations and approved by the ethical committee Malmö/Lunds djurförsöksetiska nämnd (M120‐15). Animals were housed 5/cage in polysulfone IVC cages at a constant temperature with 12 h light‐dark cycles and free access to food, tap water, and cage enrichment. Animals were allowed to acclimatize to the housing conditions for at least a week before the start of experiments. Female 8‐week‐old NOD.Cg‐Prkdc^ scid Il2rg^ tm1Sug /JicTac (CIEA‐NOG®) mice (supplied by Taconic Biosciences, Rensselaer, NY, USA; n = 42) were implanted subcutaneously with 1.75 × 10^6 H1299‐GFP2xFYVE cells in serum‐free RPMI in 50% Matrigel. When tumors reached 300–400 mm^3 mice were randomized and dosed with 9 or 29 mg·kg^−1 SB02024 or vehicle (PEG 200 (98%)/Polysorbate (2%)). At indicated time points after dosing, blood samples were taken by heart puncture and tumors were removed. Pharmacokinetic (PK) analysis (plasma and tumor samples) was performed by Q&Q Labs (Gothenburg, Sweden). Plasma was precipitated with acetonitrile, and after centrifugation, the soluble material was recovered. Tumor of 50–150 mg was homogenized mechanically in the presence of 5× acetonitrile relative to tissue weight using Precellys Tissue Homogenizer (Bertin Technologies, Montigny‐le‐Bretonneux, France). Samples were centrifuged and soluble material was kept for further analysis. SB02024 levels were determined using UHPLC‐QQQ: Agilent 6460 (LC–MS/MS; Agilent Technologies, Santa Clara, CA, USA). Pharmacodynamic (PD) analysis of GFP2xFYVE punctae was performed by Offspring Biosciences (Södertalje, Sweden). H1299‐GFP2xFYVE tumors were fixed by immersion in 4% formalin in PBS for 72 h at 4 °C, sampled randomly by six biopsies (diameter 1 mm), and reassembled into three separate tumor microarrays (TMAs). Each TMA block was sectioned and analyzed at eight equally spaced levels. The immunohistochemical staining was performed using the Ventana Discovery XT protocol. […]

[2] = pKa; type: physicochemical; details: read-out: pKa (weakly basic)
Method: (§1) Experiments were conducted at Aragen Life Sciences Ltd. (Hyderabad, India) according to internal standard procedures.

[3] = system: Me30966 cells; experiment: Gene expression (qRT-PCR) in Me30966 cells; type: cell-based, human; details: 2 μM, 24 h, vs DMSO
Method: (A) IFNB1 gene expression quantified by qRT-PCR after 24h treatment with DMSO control or 2 µM of VPS34 inhibitor
(=VPS34i, SB02024 or SAR405) in Me30966 cells.

[4] = system: A-498 cells; experiment: IFN/cytokine gene expression (qRT-PCR) and secretion (MSD) in A-498 cells; type: cell-based, human; details: 2 μM, 24 h, vs DMSO
Method: (§2) RNA was isolated using the PureLink kit (#12183018A; Thermo Fisher) and DNA‐binding columns (Rneasy plus kit, #74134; Qiagen) and/or Dnase treatment (#12185010; Thermo Fisher). After quantification using NanoDrop, 50 ng·μL^−1 RNA was used for cDNA synthesis with SuperScript IV VILO Master Mix (#11756050; Thermo Fisher). Quantitative RT‐PCR was run with diluted cDNA (1 : 25 or 1 : 12.5), PowerUp SYBR Green Master Mix (#A25741; Thermo Fisher), and 200 nM primers (see Table S3) on a CFX Connect RT‐PCR system (BioRad, Hercules, CA, USA). Data were analyzed using the ΔΔCT method.
(§3) Cell culture medium was centrifuged at 300 g for 10 min at 4 °C and supernatant stored at −80 °C. Mouse blood was collected at termination in K2‐EDTA tubes on ice, centrifuged at 1270 g for 10 min at 4 °C, and plasma was stored at −80 °C. Cytokine levels were quantified using Mesoscale Discovery (MSD) assays: human CCL5 (#F21ZN), CXCL10 (#K151UFK), IFNβ (#K151VIK); mouse CCL5 (#K152A2K) and CXCL10 (#K152UFK). Low concentrations of human IFNβ were determined using High‐Sensitivity IFNβ ELISA (#41415‐1; PBL Assay Science, Piscataway, NJ, USA). CCL5/CXCL10 levels in some experiments were quantified using R&D Systems (Minneapolis, MN, USA) ELISAs: human CCL5 (#DY278) or CXCL10 (#DY266); mouse CCL5 (#DY478).

[5] = CaCo2 monolayer permeability assay; type: in vitro ADME; details: human, Caco-2
Method: as §1

[6] = Shake flask LogD; type: physicochemical
Method: as §1

[7] = Plasma protein binding, human; type: in vitro ADME; details: unbound/free fraction, read-out: PPB (% unbound) human
Method: as §1

[8] = system: B16-F10 tumors; experiment: Tumor growth inhibition study, B16-F10 tumor-bearing mice; type: in vivo, mouse; details: B16-F10 in C57BL/6 mice; SB02024 20 mg·kg^−1 oral daily day 7-16; ADU-S100 10 μg intratumoral days 9, 11, 13, 15
From the text: Study protocols were approved by the Institutional Animal Care and Use Committee of CrownBio in China (AN‐1903‐05‐313) or the LIH's animal welfare committee in Luxembourg (agreement LECR‐2018‐12). Mice were handled according to European Union guidelines, adhering to the principles of replacement, reduction, and refinement (3Rs). Animals were housed in appropriate accommodations conducive to their well‐being, with provisions for housing, feeding, and environmental enrichment to meet their physical and behavioral needs. Highly skilled personnel were involved in carrying out procedures related to the animal experiments to ensure proper care and handling. Female 6 to 8‐week‐old BALB/c (supplied by Shanghai Lingchang Biotechnology Co., Shanghai, China; n = 14) or C57BL/6 mice (supplied by Janvier Labs, Le Genest‐Saint‐Isle, France; n = 40) were injected into the right flank with 1 × 10^6 Renca or 0.2 × 10^6 B16‐F10 cells, respectively, resuspended in 100 μL PBS (day 0). When tumors were palpable (day 9 for Renca, day 7 for B16‐F10 tumors), mice were randomly assigned into two groups for the Renca model with n = 6 (vehicle) and n = 8 (SB02024) or four groups for the B16‐F10 model with n = 10. […] Tumor growth was measured using a caliper every other day and estimated as follows: volume (cm^3) = (width)^2 × length × 0.5.

[9] = system: Renca tumors; experiment: NanoString gene expression and network enrichment analysis of Renca tumors; type: in vivo, mouse
From the text: Study protocols were approved by the Institutional Animal Care and Use Committee of CrownBio in China (AN‐1903‐05‐313) or the LIH's animal welfare committee in Luxembourg (agreement LECR‐2018‐12). Mice were handled according to European Union guidelines, adhering to the principles of replacement, reduction, and refinement (3Rs). Animals were housed in appropriate accommodations conducive to their well‐being, with provisions for housing, feeding, and environmental enrichment to meet their physical and behavioral needs. Highly skilled personnel were involved in carrying out procedures related to the animal experiments to ensure proper care and handling. Female 6 to 8‐week‐old BALB/c (supplied by Shanghai Lingchang Biotechnology Co., Shanghai, China; n = 14) or C57BL/6 mice (supplied by Janvier Labs, Le Genest‐Saint‐Isle, France; n = 40) were injected into the right flank with 1 × 10^6 Renca or 0.2 × 10^6 B16‐F10 cells, respectively, resuspended in 100 μL PBS (day 0). When tumors were palpable (day 9 for Renca, day 7 for B16‐F10 tumors), mice were randomly assigned into two groups for the Renca model with n = 6 (vehicle) and n = 8 (SB02024) or four groups for the B16‐F10 model with n = 10. Daily treatment with 20 mg·kg^−1 SB02024 or vehicle (0.5% methylcellulose in water supplemented with 1% Tween‐80) was administered by oral gavage (day 9–16 for Renca, day 7–16 for B16‐F10 model). For combination studies, ADU‐S100 (10 μg in 40–50 μL PBS) or vehicle (PBS) treatment was administered by intratumoral injection (days 9, 11, 13, and 15). Tumor growth was measured using a caliper every other day and estimated as follows: volume (cm^3) = (width)^2 × length × 0.5.
Renca tumor RNA was isolated using the Rneasy Plus kit (#74134; Qiagen, Venlo, the Netherlands), quantified using a NanoDrop spectrophotometer (Thermo Fisher), and 100 ng was used as input for the nCounter PanCancer IO 360 mouse panel (NanoString Technologies, Seattle, WA, USA). Data were analyzed by NanoString's data analysis service. Network enrichment analysis (NEA) was carried out by Evi‐networks, Sweden (see detailed description in Table S2).

[10] = system: B16-F10 cells; experiment: IFN/cytokine gene expression (qRT-PCR) and secretion (MSD) in B16-F10 cells; type: cell-based, murine; details: 2 μM, 24 h, vs DMSO
Method: as §2, §3

[11] = target: CYP3A4 (Homo sapiens, UniProt P08684); experiment: CYP inhibition; type: in vitro ADME
Sequence of CYP3A4 (P08684 whole entry): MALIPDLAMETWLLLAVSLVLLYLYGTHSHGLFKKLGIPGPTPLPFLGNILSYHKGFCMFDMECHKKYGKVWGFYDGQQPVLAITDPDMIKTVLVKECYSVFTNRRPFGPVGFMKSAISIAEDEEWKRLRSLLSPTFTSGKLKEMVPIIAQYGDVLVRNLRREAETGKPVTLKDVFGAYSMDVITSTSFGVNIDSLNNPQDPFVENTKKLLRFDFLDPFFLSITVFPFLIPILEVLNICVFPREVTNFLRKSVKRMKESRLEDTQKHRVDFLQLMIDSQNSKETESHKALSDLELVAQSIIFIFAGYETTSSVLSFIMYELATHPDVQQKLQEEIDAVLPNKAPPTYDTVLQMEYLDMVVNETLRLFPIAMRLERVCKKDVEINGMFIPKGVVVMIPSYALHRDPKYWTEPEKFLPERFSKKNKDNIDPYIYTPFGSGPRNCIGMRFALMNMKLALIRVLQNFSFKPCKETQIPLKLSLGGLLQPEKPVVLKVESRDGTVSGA
Method: as §1

[12] = 20 mg·kg^−1, NanoString, vs vehicle

Cmax ([1]; female, NOD.Cg-Prkdc scid Il2rg tm1Sug/JicTac (CIEA-NOG), mouse, oral 29 mg·kg^−1, plasma and tumor, H1299-GFP-2xFYVE tumor-bearing CIEA NOG mice): ~10 µM | half-life ([1]; female, NOD.Cg-Prkdc scid Il2rg tm1Sug/JicTac (CIEA-NOG), mouse, oral 29 mg·kg^−1, tumor and plasma concentrations): 2.5 h | time of Cmax ([1]; oral 29 mg·kg^−1, plasma and tumor): 2 h | pKa [2]: 2.2 | Papp A→B [5]: 51 ×10⁻⁶ cm/s | efflux ratio [5]: 0.9 | logD [6]: 1.8 | fraction unbound [7]: 0.44 | inhibition of CYP3A (in words) [11]: weak inhibition
Compound: C[C@@H]1COCCN1c1cc(N2CCCC[C@@H]2C(F)(F)F)[nH]c(=O)c1 [SB02024]
IFNB1 expression [3]: significantly increased | transcription of IFNB1 and ISGs IRF1, IRF7, IRF9 [4]: significantly increased | % TGI (percent tumor growth inhibition compared to vehicle control) [8]: 27% | Ptprc gene expression (CD45+ cells) in Renca tumors [9, 12]: significantly increased | gene signatures for cytotoxic cells, T cells, total and CD56dim NK cells, macrophages, neutrophils [9, 12]: significant increase | Reactome gene signature for STING-mediated signaling, enrichment ([9]; NEA, r-mmu-3134975 as printed, treated tumors vs vehicle controls): enrichment | STAT1 and IFN gene signature for ICB sensitivity (Zemek et al.), enrichment ([9]; NEA, treated tumors vs vehicle controls): significantly enriched | transcription of IFNB1 and ISGs IRF1, IRF7, IRF9 [10]: significantly increased

Reference: article PMC11306511, “Combining VPS34 inhibitors with STING agonists enhances type I interferon signaling and anti‐tumor efficacy” (Molecular Oncology, 2024)
